Measured values from paper PMC9501899 (Journal of the American Chemical Society, 2022).
≈ marks a conversion by molar mass, not a printed value. Read-outs that look alike come from different tables or passages of the source.

What was measured:
LRRK2 = molecular target: T1, LRRK2 (Mus musculus, UniProt Q5S006); assay: LRRK2 degradation in bone marrow-derived macrophages (BMDMs); format: cell-based; settings: 4 h
T1 construct: endogenous in cells; host or cells: mouse bone marrow-derived macrophages
T1 sequence (Q5S006 whole entry): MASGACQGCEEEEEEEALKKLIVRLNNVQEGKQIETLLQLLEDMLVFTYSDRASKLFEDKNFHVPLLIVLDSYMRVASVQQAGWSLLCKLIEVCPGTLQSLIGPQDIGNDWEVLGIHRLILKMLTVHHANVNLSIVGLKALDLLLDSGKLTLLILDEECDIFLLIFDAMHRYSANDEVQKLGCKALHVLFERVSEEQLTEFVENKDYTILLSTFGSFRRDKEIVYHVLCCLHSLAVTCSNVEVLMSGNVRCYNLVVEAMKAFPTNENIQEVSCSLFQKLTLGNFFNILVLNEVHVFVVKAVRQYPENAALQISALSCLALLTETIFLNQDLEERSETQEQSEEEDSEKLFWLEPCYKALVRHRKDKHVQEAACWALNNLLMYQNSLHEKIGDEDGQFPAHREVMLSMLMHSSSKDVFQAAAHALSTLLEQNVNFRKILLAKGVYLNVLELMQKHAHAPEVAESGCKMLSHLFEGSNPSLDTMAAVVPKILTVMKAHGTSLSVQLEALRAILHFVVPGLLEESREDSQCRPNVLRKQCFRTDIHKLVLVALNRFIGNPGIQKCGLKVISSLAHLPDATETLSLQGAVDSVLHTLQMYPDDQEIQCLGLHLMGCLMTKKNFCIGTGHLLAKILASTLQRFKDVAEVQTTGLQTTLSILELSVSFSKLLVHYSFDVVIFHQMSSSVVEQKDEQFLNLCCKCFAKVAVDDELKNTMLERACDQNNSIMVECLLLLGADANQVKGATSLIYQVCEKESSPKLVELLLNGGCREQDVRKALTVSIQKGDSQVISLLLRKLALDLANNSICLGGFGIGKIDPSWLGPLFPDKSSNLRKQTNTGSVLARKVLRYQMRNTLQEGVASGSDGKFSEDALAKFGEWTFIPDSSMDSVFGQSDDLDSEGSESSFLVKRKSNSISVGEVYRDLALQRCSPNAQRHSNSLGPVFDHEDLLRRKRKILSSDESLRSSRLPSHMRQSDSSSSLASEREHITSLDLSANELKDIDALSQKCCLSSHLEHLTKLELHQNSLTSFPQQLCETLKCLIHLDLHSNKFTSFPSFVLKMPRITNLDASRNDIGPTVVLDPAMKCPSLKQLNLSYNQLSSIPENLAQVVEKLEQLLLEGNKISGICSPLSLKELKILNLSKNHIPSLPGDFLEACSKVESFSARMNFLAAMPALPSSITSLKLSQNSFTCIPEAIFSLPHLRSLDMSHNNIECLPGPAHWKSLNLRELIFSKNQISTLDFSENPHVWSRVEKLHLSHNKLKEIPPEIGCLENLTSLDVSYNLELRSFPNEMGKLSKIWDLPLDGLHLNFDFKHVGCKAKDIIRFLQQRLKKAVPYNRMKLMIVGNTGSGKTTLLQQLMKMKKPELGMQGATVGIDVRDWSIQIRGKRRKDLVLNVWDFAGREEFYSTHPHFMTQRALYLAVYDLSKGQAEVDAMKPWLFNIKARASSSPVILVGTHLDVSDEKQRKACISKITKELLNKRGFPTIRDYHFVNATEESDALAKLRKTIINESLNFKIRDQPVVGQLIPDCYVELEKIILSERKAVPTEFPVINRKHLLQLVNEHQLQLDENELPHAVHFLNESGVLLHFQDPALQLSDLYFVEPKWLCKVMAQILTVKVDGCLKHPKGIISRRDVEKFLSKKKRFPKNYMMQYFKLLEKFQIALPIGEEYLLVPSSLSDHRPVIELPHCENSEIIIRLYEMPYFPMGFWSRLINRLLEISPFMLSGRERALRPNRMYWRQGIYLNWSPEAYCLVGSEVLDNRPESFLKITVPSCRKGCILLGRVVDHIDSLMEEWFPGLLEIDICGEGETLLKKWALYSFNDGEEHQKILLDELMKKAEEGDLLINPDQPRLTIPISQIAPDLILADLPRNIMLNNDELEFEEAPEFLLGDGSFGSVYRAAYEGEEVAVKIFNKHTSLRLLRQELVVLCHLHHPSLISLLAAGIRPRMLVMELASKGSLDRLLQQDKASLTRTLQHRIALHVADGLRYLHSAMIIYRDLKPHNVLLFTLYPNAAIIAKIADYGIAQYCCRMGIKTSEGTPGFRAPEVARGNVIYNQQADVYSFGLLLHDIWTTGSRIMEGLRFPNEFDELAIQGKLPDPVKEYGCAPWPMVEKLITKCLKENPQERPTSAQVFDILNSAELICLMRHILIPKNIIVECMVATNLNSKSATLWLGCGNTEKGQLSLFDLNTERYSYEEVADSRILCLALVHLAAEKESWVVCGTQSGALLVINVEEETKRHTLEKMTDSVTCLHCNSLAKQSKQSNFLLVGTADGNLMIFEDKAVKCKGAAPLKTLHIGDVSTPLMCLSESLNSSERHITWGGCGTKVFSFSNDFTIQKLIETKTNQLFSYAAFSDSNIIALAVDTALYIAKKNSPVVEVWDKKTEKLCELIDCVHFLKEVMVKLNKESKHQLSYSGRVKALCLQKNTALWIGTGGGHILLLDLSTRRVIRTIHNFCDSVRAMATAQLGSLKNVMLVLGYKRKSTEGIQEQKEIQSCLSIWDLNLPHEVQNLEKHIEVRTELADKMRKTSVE
Source text: The relative LRRK2 protein and pRab10 levels were obtained by quantifying the ratios of total LRRK2/GAPDH or Rab10-pThr73/total Rab10, respectively, and the ratios were normalized to the DMSO-treated samples. The relative LRRK2 and pRab10 protein levels were plotted against the compound concentration and fitted against “nonlinear regression, one site-fit log IC50” in GraphPad to obtain the DC50 and EC50 values. Data points are presented as mean ± standard error of the mean (SEM) from three biological independent replicates. […] The relative LRRK2 protein and pRab10 levels were obtained by quantifying the ratios of total LRRK2/ GAPDH or Rab10-pThr73/total Rab10, respectively, and the ratios were normalized to the DMSO-treated samples. The relative LRRK2 and pRab10 protein levels were plotted against the treatment time and were fitted against “nonlinear regression, one-phase decay” in GraphPad to obtain the half-life (T1/2) values. Data points are presented as mean ± SEM from three biological independent replicates. […] The relative LRRK2 levels were obtained by quantifying the ratios of total LRRK2/tubulin and normalized to the DMSO-treated samples. The relative LRRK2 levels were plotted against the compound concentration and fitted against “nonlinear regression, one site-fit log IC50” in GraphPad to obtain the DC50 values.
Bone marrow isolation and macrophage differentiation were modified from ref ([81]), employing an L929 preconditioned medium as the source of M-CSF for differentiation. Briefly, scissors and forceps were used to dissect femurs and tibiae from adult mice, and muscle tissues were carefully removed from bones. Clean femurs and tibiae were placed in a tissue culture dish containing complete media. The ends of each bone were cut with scissors to expose the bone marrow. […] The cell suspension was counted, and cells were seeded for experimental analysis in a six-well format in tissue culture-treated dishes at a final cell density of one million cells per well of a six-well plate. […]

[1] = Solubility in phosphate buffer and FeSSIF; format: physicochemical
Description: Eight microliters of reference or test compound stock solution (10 mM in DMSO) was added to 792 μL of 100 mM phosphate buffer (pH 7.4) or FeSSIF (pH 5.8). The resulting mixture was shaken for 1 h (1000 rpm) at room temperature and then centrifuged for 10 min (12 000 rpm) to remove the undissolved particles. The supernatant was collected and diluted 10 times and 100 times separately with 100 mM phosphate buffer or FeSSIF. Five microliters of the supernatant samples (no diluted, 10 times diluted, 100 times diluted) were mixed with 95 μL of acetonitrile (containing internal standard) separately before injecting into LC-MS/MS for analysis.

Plasma stability assay = format: in vitro ADME; settings: mouse plasma, 37 °C; read-out: T1/2 in mouse plasma
Description: Frozen plasma was thawed at 37 °C and centrifuged at 3000 rpm for 8 min to remove clots, and the supernatant was used in the experiment. The pH of the plasma was recorded, and only the pH range between 7.4 and 8 was used. The plasma and compound solution were prewarmed to 37 °C. Ten microliters of prewarmed testing compound or reference compound (procaine) solution (20 μM in 0.05 mM sodium phosphate buffer (pH 7.4) with 0.5% BSA) was mixed with 90 μL of plasma at different time points to allow for 5, 15, 30, 45, and 60 min of incubation time. For 0 min, the plasma was mixed with vehicle only. Acetonitrile was added to the compound and plasma mixture to quench the reaction, and the resulting mixture was centrifuged (5594g for 15 min). The supernatant was taken and diluted before LC-MS analysis.

Rab10-pThr73 = assay: Rab10 dephosphorylation in G2019S LRRK2 MEFs by Western blotting; format: cell-based, mouse; settings: 0.3 µM
[2] = Mouse hepatocyte stability; format: in vitro ADME; settings: mouse hepatocytes
Description: Fifty microliters of prewarmed hepatocytes (2 × 10^6 cells/mL) in suspension media (Krebs–Henseleit buffer (Sigma-Aldrich) containing 5.6 g/L HEPES) was mixed with 50 μL of prewarmed compound dosing solution (2 μM in Krebs–Henseleit buffer with 1% DMSO). After incubating at 37 °C for 15, 30, 60, or 120 min, 100 μL of acetonitrile containing internal standard was added to quench the reaction. For 0 min incubation, acetonitrile was mixed with hepatocytes first before adding the compound solution. After quenching, the mixture was shaken at a vibrator for 10 min (600 rpm/min) and then sonicated for 2 min before centrifugation (5594g for 15 min). The supernatant was taken and diluted for LC-MS analysis.

Row | Compound | DC50s (LRRK2) (LRRK2) | Dmax (LRRK2) (LRRK2) | Dmax (LRRK2; BMDM) [%] | solubility at 1 h ([1]; 100 mM phosphate buffer, pH 7.4, read-out: solubilities in PBS (pH 7.4)) [µM] | solubility at 1 h ([1]; FeSSIF, pH 5.8, read-out: solubility in FeSSIF (pH 5.8)) [µM] | half-life at 2 µM (Plasma stability assay) [h] | GS-pRab10 percent label at the end of the time curve (Rab10-pThr73) [%] | CLint scaled at 1 µM [2] [mL/min/kg] | half-life at 1 µM ([2]; read-out: T1/2 in mouse hepatocytes) [h]
1 | CNc1nc(Nc2ccc(C(=O)N3CCN(C[C@H]4CC[C@H](CSC(C)(C)[C@H](NC(=O)C5(F)CC5)C(=O)N5C[C@@H](O)C[C@H]5C(=O)NCc5ccc(-c6scnc6C)cc5)CC4)CC3)cc2OC)ncc1Cl [cis-XL01126, (2S,4S)-1-((R)-3-((((1R,4R)-4-((4-(4-((5-Chloro-4-(methylamino)pyrimidin-2-yl)amino)-3-methoxybenzoyl)piperazin-1-yl)methyl)cyclohexyl)methyl)thio)-2-(1-fluorocyclopropane-1-carboxamido)-3-methylbutanoyl)-4-hydroxy-N-(4-(4-methylthiazol-5-yl)benzyl)pyrrolidine-2-carboxamide] | NDO | NDO | – | – | – | – | – | – | –
2 | CNc1nc(Nc2ccc(C(=O)N3CCN(C[C@H]4CC[C@H](CSC(C)(C)[C@H](NC(=O)C5(F)CC5)C(=O)N5C[C@H](O)CC5C(=O)NCc5ccc(-c6scnc6C)cc5)CC4)CC3)cc2OC)ncc1Cl (stereo partly drawn) [XL01126, (2S,4R)-1-((R)-3-((((1R,4R)-4-((4-(4-((5-Chloro-4-(methylamino)pyrimidin-2-yl)amino)-3-methoxybenzoyl)piperazin-1-yl)methyl)cyclohexyl)methyl)thio)-2-(1-fluorocyclopropane-1-carboxamido)-3-methylbutanoyl)-4-hydroxy-N-(4-(4-methylthiazol-5-yl)benzyl)pyrrolidine-2-carboxamide] | – | – | 83 | 0.55 (≈ 0.561 µg/mL) | 26.1 (≈ 26.6 µg/mL) | 1.8 | 92 | 26 | 5.24
3 | CNc1nc(Nc2ccc(C(=O)N3CCN(C[C@H]4CC[C@@H](CSC(C)(C)[C@H](NC(=O)C5(F)CC5)C(=O)N5C[C@H](O)CC5C(=O)NCc5ccc(-c6scnc6C)cc5)CC4)CC3)cc2OC)ncc1Cl (stereo partly shown) [XL01134] | – | – | – | – | – | – | 87 | – | –
